Assay results from patent publication US7888123B2 (priority 2005, dated 2011).

Legend:
[1] = tested on: transformant having gapdh promoter; conditions: GPY plate media, 28° C.
Experimental: (§1) (22) Test for Zeocin Sensitivity of Transformant
(§2) The precultured microorganism cells were diluted to 20 cells/μl, and 1 μl thereof was spotted onto GPY plate media having Zeocin concentration ranging from 0 to 6000 μg/ml and incubated in the shade at 28° C. for 60 hours.

[2] = tested on: transformant having ef1α promoter; conditions: GPY plate media, 28° C.
Experimental: as §1, §2

[3] = tested on: wild type (CB15-5 strain); conditions: GPY plate media, 28° C.
Experimental: as §1, §2

[4] = tested on: Schizochytrium sp. CB15-5; conditions: medium containing 10 to 30 μg/ml Zeocin; 28° C., 72 hours in the shade
Experimental: (3) Test for Zeocin Sensitivity of CB15-5 Strain
The precultured microorganism cells were diluted 1000-fold, and 100 μL thereof was seeded onto GYP plate media having Zeocin concentration ranging from 0 to 50 μg/ml, and incubated at 28° C. for 72 hours in the shade. The number and size of the resulting colonies were measured.

[5] = tested on: transformant having actin promoter; conditions: GPY plate media, 28° C.

SMILES: Cc1c(N)nc([C@H](CC(N)=O)NC[C@H](N)C(N)=O)nc1C(=O)N[C@H](C(=O)N[C@H](C)[C@@H](O)[C@H](C)C(=O)N[C@H](C(=O)NCCC1=N[C@@H](c2nc(C(=O)NCCCCN=C(N)N)cs2)CS1)[C@@H](C)O)[C@@H](O[C@@H]1O[C@@H](CO)[C@@H](O)[C@H](O)[C@@H]1O[C@H]1O[C@H](CO)[C@@H](O)[C@H](OC(N)=O)[C@@H]1O)c1cnc[nH]1 [Zeocin]
- Zeocin concentration up to which viable [1]: ≤ 2000 µg/mL
- Zeocin concentration up to which viable [2]: ≤ 6000 µg/mL
- Zeocin concentration in which completely nonviable [3]: 20 µg/mL
- number and size of the colonies [4]: concentration-dependent decrease
- Zeocin concentration up to which viable [5]: up to 4000 μg/ml
